Test results: patent US8969333B2, “Therapeutic compositions and methods” (The Penn State Research Foundation, priority 2010, dated 2015)
Like-named read-outs stand apart in the source and are kept apart here.

What was measured:
PAD4 = PAD4 (Homo sapiens (Human), UniProt Q9UM07); test: PAD4 enzyme activity colorimetric assay (citrullination of BAEE); type: biochemical; conditions: 0.2 μg PAD4, 5 mM BAEE, 37° C.
Method: PAD4 enzyme activity assays are conducted to determine PAD4 inhibitory activity. PAD4 inhibition efficacy of the inhibitors is determined using a colorimetric assay for citrullination production.
The inhibition efficacy of PAD4 inhibitors were determined by colorimetric measurement of citrulline generated by PAD4 catalyzed citrullination of BAEE. 0.2 μg PAD4 was pre-incubated with inhibitors in 100 μl buffer containing 50 mM Tris-HCl pH7.6, 5 mM CaCl2, 2 mM DTT for 0.5 hr at 37° C. The reaction was started by the addition of BAEE to 5 mM and halted 1.5 hr later with the addition of 25 μl 5 M HClO4. Then the samples were briefly centrifuged at 12000 rpm for 2 min at 4° C. and the supernatant (120 μl) were assayed for citrulline by mixing with 120 μl reagent A (0.5% w/v diacetyl monoxime and 15% w/v NaCl in water) and 240 μl reagent B (1% w/v antipyrine, 0.15% w/v ferric chloride, 25% v/v H2SO4 and 25% v/v H3PO4). The mixtures were boiled for 15 min and cooled to room temperature in ice bath. The absorbance of the reagent mixtures at 464 nm was measured by Thermo BioMate™ 3 spectrophotometer. Efficacies of inhibitors are indicated as relative PAD4 citrullination activity by normalizing the PAD4 activity without inhibitor treatment to 100%.

[1] = test system: U2OS human osteosarcoma cells; test: MTT assay of U2OS cancer cell growth inhibition; type: cell-based; conditions: for IC50: read-out: 50% inhibition Cell growth, U2OS cells, MTT, 72 hr; for U2OS cell growth in MTT assay: 20 μM, 3 days
Method: MIT assays are conducted to evaluate activity to inhibit cancer cell growth. U2OS human osteosarcoma cells were treated with individual compounds at different concentrations for 72 hr in 24-well plates. MIT reagent was added to a final concentration of 0.5 mg/ml and further incubated for 4 hr. The yellow-colored MTT was reduced to insoluble purple-colored Formazan in living cells. Culture medium was removed and DMSO was added to dissolve Formazan into solution. The absorbance of the solution was then measured at 570 nm using a Thermo BioMate™ 3 spectrophotometer. Results are shown in FIG. 1 and average and standard deviations are shown (n>=3).
Cells were treated with individual compounds at different concentrations for 72 hr in 24-well plates. MTT reagent was added to a final concentration of 0.5 mg/ml and further incubated for 4 hr. The yellow-colored MTT was reduced to insoluble purple-colored Formazan in living cells. Culture medium was removed and DMSO was added to dissolve Formazan into solution. The absorbance of the solution was then measured at 570 nm using a Thermo BioMate™ 3 spectrophotometer.

p53 and its target genes = test: RT-qPCR and Western blot of p53 and its target genes in U2OS cells; type: cell-based, human; conditions: U2OS cells
Method: Western blot and immunostaining was performed essentially as described in Li, P. et al., Oncogene 29 (21), 3153-3162 (2010). Antibodies used in Western blot were anti-p53 (Sigma), anti-PAD4, anti-p21 (Sigma), anti-PUMA (Calbiochem), anti-SESN2 (Abeam), anti-p70S6K (Cell Signaling), anti-p70S6K-pT389 (Cell Signaling), anti-LC3 (Cell Signaling) and anti-β-actin (Sigma) at appropriate dilutions. Anti-LC3B antibody (Cell Signaling) was used for immunostaining. DNA was stained by the DNA dye Hoechst.
RNA was extracted using RNeasy Mini Kit (Qiagen) per manufacturer's instructions. 1 μg RNA was reverse transcribed into cDNA using qScript cDNA SuperMix (Quanta Biosciences) per manufacturer's instructions. Quantitative PCR was performed using SYBR Green SuperMix (Quanta Biosciences) in StepOnePlus Real-Time PCR System (Applied Biosystems). FIG. 10 is a graph showing p53 and its target gene expression induced in S180 cells by YW3-56 in a concentration dependent manner.
U2OS and S-180 cells were cultured in Dulbecco modified Eagle medium (DMEM) supplemented with 10% fetal bovine serum and 1% penicillin-streptomycin in a 5% CO2 incubator. U2OS p53-shRNA and U2OS Ctrl-shRNA cells were generated as described in Li, P. et al., Regulation of p53 target gene expression by peptidylarginine deiminase 4. Mol Cell Bial 28 (15), 4745-4758 (2008). Concentrations and duration of YW3-56 treatment were performed as specified in the figures and text. For starvation assay, U2OS cells were first cultured in serum-free DMEM for 16 hr, 10% fetal bovine serum and different concentrations of YW3-56 was then added back and cells were further incubated for 8 hr before further analyses. SESN2 siRNA (Santa Cruz) and GFP siRNA (Dharmacon Inc.) were transfected into U2OS cells using the XtremeGene siRNA transfection reagents (Roche Inc.). Cells were incubated in the presence of the siRNA for 48 hr before adding YW3-56 and further incubated for 8 hr before analyses.
The relative abundance of each gene is compared with β-actin as a reference. Increase in several p53 target genes, such as p21, GADD45, PUMA, OKL38, DRAM, and Sestrin2, is detected after YW3-88 treatment at 12 μM concentration. […] Increase in p21 and PUMA proteins is detected.

[2] = test system: human HL-60 granulocytic cells; conditions: HL-60 granulocytic cells (Wang et al., 2009); cited from earlier work
[3] = test system: PAD4+/+ mouse neutrophils; test: Histone citrullination, enlarged nucleus and NET formation in PAD4+/+ neutrophils; type: cell-based; conditions: for NET formation, percentage of neutrophils / Histone citrullination, percentage of positive neutrophils / Enlarged nucleus, percentage of neutrophils: PAD4+/+; for NET formation, percentage of neutrophils / Enlarged nucleus, percentage of neutrophils: Cl-amidine 200 μM 30 min prior to LPS; for Histone citrullination, percentage of positive neutrophils: Cl-amidine 200 μM 30 min prior to LPS for 3 hr; for Enlarged nucleus, percentage of neutrophils: nuclear diameter over 1.5 fold larger
Method: (§1) NET formation is induced after lipopolysaccharides (LPS) and phorbol myristate acetate (PMA) treatment in human neutrophils (Brinkmann et al., 2004). To test whether PAD4 is important for chromatin decondensation and NET formation upon LPS treatment, immunostaining experiments are performed. Before LPS treatment, ˜3.69% of PAD4^+/+ neutrophils are positively stained for histone H3 citrullination but NET formation is not detected, while histone H3 citrullination or NET formation is not observed in PAD4^−/− neutrophils. After LPS treatment, an increase in histone H3 citrullination is detected in PAD4^+/+ but not in PAD4^−/− neutrophils by Western blotting or immunostaining analyses. […] The decondensed chromatin induced by LPS is positively stained by histone H3 citrullination and neutrophil elastase antibodies, indicating these structures are indeed NETs. […] Furthermore, chromatin decondensation and histone citrullination are detected in PAD4^+/+ but not in PAD4^−/− neutrophils after PMA treatment.
(§2) Table II illustrates the efficacy of LPS, PMA, and H2O2 in inducing chromatin structure changes in PAD4^+/+ and PAD4^−/− neutrophils. […] PAD4 is required for NET formation after stimulation of neutrophils.

[4] = test system: PAD4-/- mouse neutrophils; test: Histone citrullination, enlarged nucleus and NET formation in PAD4-/- neutrophils; type: cell-based; conditions: U.D. = undetectable
Method: as §1, §2

S180 tumor = test: Sarcoma S180 cell-derived mouse tumor model; type: in vivo; conditions: SAHA 5 mg/kg daily for 1 week
Description: A well-established sarcoma S180 cell-derived mouse tumor model is used in this example to determine the effects of PAD4 inhibitors of the present invention on tumor growth in mice.
(§3) S180 ascites tumor cells were used to form solid tumors after subcutaneous injection essentially as described in Wang, W. et al., Mol. Biosyst., 2011, 7:766-772. In brief, for initiation of subcutaneous tumors, the cells were obtained as an ascitic form from the tumor-bearing mice, which were serially transplanted once per week. Subcutaneous tumors were implanted by injecting 0.2 ml of 0.9% saline containing 1×10^7 viable tumor cells under the skin on the right armpit. 24 hr after implantation, male ICR mice were randomly divided into experimental groups. The mice in the positive control group were given a daily i.p injection of 2 mg/kg of doxorubicin in 0.2 ml of 0.9% saline for 7 consecutive days. The mice in the negative control group were given a daily i.p injection of 0.2 ml of 0.9% saline for 7 consecutive days. The mice in the treatment groups were given a daily i.p injection of YW3-56 (10 mg/kg), SAHA (5 mg/kg), or a combination of YW3-56 (5 mg/kg) and SAHA (2.5 mg/kg) for 7 consecutive days. The weights of the mice were recorded every day. 24 hr after the last administration, all mice were weighed, euthanized and immediately dissected to obtain and weigh the tumor and vital organs.

[5] = Body and vital organ weight after 1 week of treatment; type: in vivo, mouse
Method: as §3, with “The mice in the treatment groups were given a daily i.p injection of YW3-56 (10 mg/kg), SAHA (5 mg/kg), or a combination of YW3-56 (5 mg/kg) and SAHA (2.5 mg/kg) for 7 consecutive days.” left out, “24 hr after the last administration, all mice were weighed, euthanized and immediately dissected to obtain and weigh the tumor and vital organs.” left out
FIG. 13A-13F show weight of whole body, FIG. 13A; brain, FIG. 13B; heart, FIG. 13C; liver, FIG. 13D; kidney, FIG. 13E; and spleen, FIG. 13F measured in mice after 1 week of treatment with daily intraperitoneal injection of control PBS, YW3-56 at 10 mg/kg body weight, SAHA at 5 mg/kg body weight, a mixture of YW3-56 at 5 mg/kg body weight and SAHA at 2.5 mg/kg body weight, or doxorubicin at 2 mg/kg body weight. * in (f) denotes a loss of spleen weight after doxorubicin treatment.

[6] = read-out: 50% inhibition PAD4 activity

Sequence of PAD4 (Q9UM07 whole entry, species assumed): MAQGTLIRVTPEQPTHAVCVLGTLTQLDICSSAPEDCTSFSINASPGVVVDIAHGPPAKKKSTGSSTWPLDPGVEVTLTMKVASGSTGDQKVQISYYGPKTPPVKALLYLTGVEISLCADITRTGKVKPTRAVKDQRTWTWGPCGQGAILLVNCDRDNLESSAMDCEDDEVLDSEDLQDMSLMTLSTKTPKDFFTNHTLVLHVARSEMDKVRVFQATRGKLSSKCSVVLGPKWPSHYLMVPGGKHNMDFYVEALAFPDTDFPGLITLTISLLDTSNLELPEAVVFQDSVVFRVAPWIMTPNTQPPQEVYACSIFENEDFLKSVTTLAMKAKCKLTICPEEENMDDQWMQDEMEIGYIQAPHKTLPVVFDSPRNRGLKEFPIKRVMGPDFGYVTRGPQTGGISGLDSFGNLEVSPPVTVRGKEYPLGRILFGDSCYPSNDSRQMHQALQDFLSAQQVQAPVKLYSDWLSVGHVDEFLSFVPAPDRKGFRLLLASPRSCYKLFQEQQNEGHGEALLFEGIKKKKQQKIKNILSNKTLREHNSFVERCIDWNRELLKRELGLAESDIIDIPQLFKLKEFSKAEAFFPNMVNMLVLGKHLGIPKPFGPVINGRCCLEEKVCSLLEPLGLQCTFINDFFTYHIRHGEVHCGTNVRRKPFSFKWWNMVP

Compound	IC50 (PAD4; [6]) [µM]	IC50 ([1]; Homo sapiens) [µM]	NET formation, percentage of neutrophils [3] [%^5]	Histone citrullination, percentage of positive neutrophils [3] [%^5]	Enlarged nucleus, percentage of neutrophils [3] [%^5]	Enlarged nucleus, percentage of neutrophils [4]	Histone citrullination, percentage of positive neutrophils [4]	NET formation, percentage of neutrophils [4]	other results
N=C(CCl)NCCC[C@H](NC(=O)c1ccccc1)C(=O)NCc1ccccc1 [BL1-07]	> 20	10 to 20							induction of p53 and its target genes (p53 and its target genes; even at higher concentrations): less potent
NC(=O)[C@H](CCCN=C(N)CCl)NC(=O)c1ccccc1 [Cl-amidine]			0.32 ± 0.3	8.1 ± 1.3	1.2 ± 0.2	U.D.	U.D.	U.D.	formation of NET-like structure [2]: represses the formation of NET-like structure; IC50 [1]: 150 to 200 µM; histone H3 citrullination and chromatin decondensation induced by LPS ([3]; pretreatment of PAD4+/+ mouse neutrophils): significantly decreases
CCCCCCCCCCCCCC(=O)O[C@@H]1[C@@H](C)[C@@]2(O)[C@@H](C=C(CO)C[C@]3(O)C(=O)C(C)=C[C@@H]23)[C@@H]2C(C)(C)[C@]12OC(C)=O [PMA, phorbol myristate acetate]			2.7 ± 0.5	48.5 ± 3	10.9 ± 0.3	U.D.	U.D.	U.D.	
O=C(CCCCCCC(=O)Nc1ccccc1)NO [SAHA, suberoylanilide hydroxamic acid, reference compound]									growth of S180 tumor relative to control group (S180 tumor): ~44.6%; mouse growth and vital organ size ([5]; daily i.p. injection for 1 week): Neither SAHA alone nor mixtures of YW3-56 and SAHA impair
OO [Structure H2O2, H2O2]			3 ± 0.3	48.3 ± 5.4	13.4 ± 1.4	U.D.	U.D.	U.D.	
N=C(CCl)NCCC[C@H](NC(=O)c1ccc(-c2ccccc2)cc1)C(=O)NCc1ccccc1 [YW3-88]	> 20	~10							U2OS cell growth in MTT assay [1]: abolished cell growth; p21 and PUMA proteins by Western blot (p53 and its target genes): Increase; p53 target gene mRNA (p21, GADD45, PUMA, OKL38, DRAM, Sestrin2) (p53 and its target genes; 12 μM): Increase
N=C(CCl)NCCC[C@H](NC(=O)c1cccc(-c2ccccc2)c1)C(=O)NCc1ccccc1 [YW4-03]	~5	2.5 to 5							U2OS cell growth in MTT assay [1]: abolished cell growth
CN(C)c1ccc2cc(C(=O)N[C@@H](CCCNC(=N)CCl)C(=O)NCc3ccc(NC(=O)CCCNC(=O)CCCCC4SCC5NC(=O)NC54)cc3)ccc2c1 (some centres unmarked) [YW4-15]		20 to 50							IC50 (PAD4): 1 to 5 µM
COc1cccc2c1C(=O)c1c(O)c3c(c(O)c1C2=O)C[C@@](O)(C(=O)CO)C[C@@H]3O[C@H]1C[C@H](N)[C@H](O)[C@H](C)O1 [doxorubicin]									size of spleen relative to control mice ([5]; doxorubicin 2 mg/kg i.p. daily for 1 week): ~50%
lipopolysaccharides [LPS]			9.5 ± 0.5	42.3 ± 3.9	23.4 ± 2.7	U.D.	U.D.	U.D.	nuclear area increase in size (swelling nuclei) ([3]; PAD4+/+ neutrophils after LPS treatment, NIH image J): ~3.5 fold
